The values below come from paper PMC7139691, “Effect of Arginine on Chaperone-Like Activity of HspB6 and Monomeric 14-3-3ζ” (International Journal of Molecular Sciences, 2020).

This assay deals with T1, HspB6 (Homo sapiens, UniProt O14558).
T1 construct: recombinant wild type; small oligomers of 55-60 kDa (dimers and tetramers)
T1 sequence (O14558 1-160): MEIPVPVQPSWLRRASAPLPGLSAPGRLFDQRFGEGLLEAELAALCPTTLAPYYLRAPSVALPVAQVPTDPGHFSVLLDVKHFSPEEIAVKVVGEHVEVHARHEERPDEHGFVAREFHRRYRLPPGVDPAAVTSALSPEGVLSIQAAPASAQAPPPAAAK
Nature of the assay: intrinsic tryptophan fluorescence titration. The assay is classed as binding. The settings on record: read-out: Kdiss.

Molecules are shown by their SMILES.

In the case of `N=C(N)NCCC[C@H](N)C(=O)O` [arginine], the Kd was found to be 10 ± 3 mM.
